Measurements as given in US20220326218A1, “COMPOSITION AND METHOD FOR INHIBITING BORC COMPLEX TO TREAT CANCERS WITH NF1 DEFICIENCY AND DYSREGULATED RAS SIGNALING” (THE TRUSTEES OF DARTMOUTH COLLEGE, priority 2019, published 2022).
Structures can show the parent of a compound that is named as a salt.

Assays:
Assay type in all cases: cell-based, human
BNIP3L/Nix = experiment: Immunofluorescence staining for mitophagy receptor BNIP3L/Nix; conditions: U87-MG, 24 h; 2 μM Y102, 100 μM CoCl2; CoCl2 and Y102 compared with each other
Procedure: (§1) U87-MG cells were plated at a concentration of 50,000 cells/well onto precoated poly-D-lysine (PDL) coverslips (Neuvitro) in 24-well plates (Falcon) and allowed to adhere overnight. Medium was removed and replaced with treatment-laced media normalized to DMSO, and cells were treated for the indicated timepoints. At the time of collection, cells were washed with PBS and fixed with 4% paraformaldehyde without methanol (EMS) or 100% methanol (Fischer). Coverslips were washed with Tween20-containing PBS (PBST; Fischer). Following permeabilization with 0.5% Triton X-100 in PBS (Fischer), coverslips were blocked for 1 h at room temperature in IF Buffer (0.05% azide, 0.2% Triton X-100, 2% Normal Goat Serum or, for 8-OHG, Normal Donkey Serum). The following primary antibodies were used for 1 hour at room temperature unless specified: AlexaFluor 488 pre-conjugated anti-γ-H2AX (N1-431) mouse monoclonal (30 minutes; BD Biosciences), anti-cleaved caspase 3 (Asp175) rabbit polyclonal (Cell Signaling), anti-SQSTM1/p62 (D-3) mouse monoclonal (Santa Cruz), anti-8-Hydroxyguanosine goat polyclonal (1:200; Millipore), anti-LAMP1 (D4O1S) mouse monoclonal (O/N at 4° C.; Cell Signaling), anti-BNIP3L/Nix (D4R4B) rabbit monoclonal (O/N at 4° C.; Cell Signaling), anti-FLAG (M2) mouse monoclonal (2 hours at 37° C.; Sigma-Aldrich). […]

mitochondria = experiment: MitoTracker Red CMXRos staining of the mitochondrial network; conditions: U87-MG, 24 h; 2 μM Y102, 50 μM HCQ
Procedure: For MitoTracker Red CMXRos staining, 30 minutes prior to collection medium was removed and replaced with medium containing MitoTracker Red CMXRos at a final concentration of 100 nM (Molecular Probes). Following staining, cells were washed with PBS and fixed with 4% paraformaldehyde without methanol. Cells were washed with PBST, then permeabilized with 0.5% Triton X-100 in PBS. When co-staining with another marker, the staining procedure continued with the blocking step; otherwise, cells were stained with 0.33 μg/mL DAPI in PBS and mounted onto slides in ProLong Gold (Life Technologies).

sequestosome-1 (p62) = experiment: Immunofluorescence staining for p62; conditions: U87-MG, 24 h; 2 μM Y102, 50 μM HCQ; HCQ and Y102 compared with each other
Procedure: as §1

p62 = experiment: Western immunoblotting of autophagy marker p62; conditions: U87-MG, 12 h treatment +/- 12 h HCQ
Procedure: (§2) U87-MG cells were plated at 500,000 cells/well in 6-well plates and allowed to adhere overnight (Falcon). Medium was removed and replaced with fresh medium containing drugs or compounds for the indicated timepoints. Cells were collected after treatment by washing with PBS, harvested with trypsin plus agitation to detach cells, pelleted in a centrifuge and resuspended in PBS to wash. Cells were transferred to 1.5 mL microcentrifuge tubes, pelleted, and resuspended in RIPA lysis buffer (50 mM Tris pH 8.0, 150 mM NaCl, 1% nonidet P40, 0.5% sodium deoxycholate, and 0.05% SDS) containing 1 mM NaVO4, 1 mM NaF, 1 mM phenylmethylsulfonyl fluoride, 0.1 μg/mL antipain, 1 μM aprotinin, 100 μM benzamidine HCl, 0.1 μg/mL leupeptin, 0.1 μg/mL pepstatin, and 0.1 μg/mL soybean trypsin inhibitor. Protein was quantified using a BCA assay kit (Pierce). 50 μg of protein was prepared in 1× Laemmli sample buffer (50 mM Tris pH 6.8, 0.02% w/v bromophenol blue, 2% w/v SDS, 10% v/v glycerol, 1% v/v beta-mercaptoethanol, 12.5 mM EDTA) and separated by SDS-PAGE on a 4-15% polyacrylamide gradient gel (Bio-Rad). […]

LC3-II = experiment: Western immunoblotting of autophagy marker LC3-I/II; conditions: U87-MG, 12 h treatment +/- 12 h HCQ co-treatment, total 24 h
Procedure: as §2

SMILES	expression/localization of BNIP3L/Nix on the mitochondria compared to DMSO control (BNIP3L/Nix)	mitochondrial phenotype (perinuclear clustering) (mitochondria)	p62 expression compared to DMSO (immunofluorescence) (sequestosome-1 (p62))	p62 expression (western immunoblotting) (p62)	LC3-II accumulation (western immunoblotting) (LC3-II)
[Cl-].[Cl-].[Co+2] [CoCl2, Cobalt (II) Chloride, reference compound]	similar	–	–	–	–
CCN(CCO)CCCC(C)Nc1ccnc2cc(Cl)ccc12 (centres unmarked) [HCQ, Hydroxychloroquine Sulfate, reference compound]	–	not observed	similar	increased	resulted in LC3-II accumulation
